The values below come from publication PMC7761077, “Differential Effects of Cancer-Associated Mutations Enriched in Helix H3 of PPARγ” (Cancers, 2020).

In test [1] the target is T1, PPARγ LBD F287Y (Homo sapiens, UniProt P37231, F315Y).
T1 construct: PPARγ LBD (residues 195–477 in PPARγ1 numbering) was cloned into the expression vector pET-28b(+); made in house; host or cells: Escherichia coli Rosetta 2(DE3)
T1 sequence (P37231 195-477 isoform P37231-2 F287Y): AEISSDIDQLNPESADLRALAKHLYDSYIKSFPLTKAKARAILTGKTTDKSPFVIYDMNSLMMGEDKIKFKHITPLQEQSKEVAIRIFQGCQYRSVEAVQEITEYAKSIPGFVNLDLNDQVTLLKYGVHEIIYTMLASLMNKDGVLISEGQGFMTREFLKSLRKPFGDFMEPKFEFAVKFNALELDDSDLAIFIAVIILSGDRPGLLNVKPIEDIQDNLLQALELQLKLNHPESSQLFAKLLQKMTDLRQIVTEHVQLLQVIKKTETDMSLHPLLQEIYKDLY
The test can be described thus: ITC binding of endogenous ligands to PPARγ LBD F287Y. Particulars: PBS pH 7.2, 25 °C, ligand 0.9 mM. The method, then: (§1) Since PPARγ is physiologically regulated by endogenous ligands, it is possible that the activation of PPARγ mutants would be induced upon binding to known endogenous PPARγ ligands. […] […]. […] […].
(§2) All the measurements were conducted in the buffer of PBS pH 7.2 at 25 °C. The ligands filled in the syringe were titrated into the proteins in the cell using 19 injections of 2 μL and an initial injection of 0.4 μL with 150 s equilibration between injections. The final protein concentrations of PPARγ LBD WT and mutants were 60 μM for 15d-PGJ2 at the ligand concentration of 900 μM and 45 μM for 13S-HODE at the ligand concentration of 900 μM, respectively. The obtained data were analyzed using Origin 7.0 software.

In test [2] the target is T2, PPARγ LBD C285Y (Homo sapiens, UniProt P37231, C313Y).
T2 construct: PPARγ LBD (residues 195–477 in PPARγ1 numbering) was cloned into the expression vector pET-28b(+); made in house; host or cells: Escherichia coli Rosetta 2(DE3)
T2 sequence (P37231 195-477 isoform P37231-2 C285Y): T1 sequence (P37231 195-477 isoform P37231-2 F287Y) with C91Y, Y93F
The test is described as follows: ITC binding of endogenous ligands to PPARγ LBD C285Y. To be noted: PBS pH 7.2, 25 °C, ligand 0.9 mM. How it is done:
as §1, §2

Test [3] addresses T3, PPARγ LBD S289C (Homo sapiens, UniProt P37231, S317C).
T3 construct: PPARγ LBD (residues 195–477 in PPARγ1 numbering) was cloned into the expression vector pET-28b(+); made in house; host or cells: Escherichia coli Rosetta 2(DE3)
T3 sequence (P37231 195-477 isoform P37231-2 S289C): T1 sequence (P37231 195-477 isoform P37231-2 F287Y) with Y93F, S95C
The test can be described thus: ITC binding of endogenous ligands to PPARγ LBD S289C. Particulars: PBS pH 7.2, 25 °C, ligand 0.9 mM. How it is done: as §1, §2

The target of test [4] is T4, PPARγ LBD R280C (Homo sapiens, UniProt P37231, R308C).
T4 construct: PPARγ LBD (residues 195–477 in PPARγ1 numbering) was cloned into the expression vector pET-28b(+); made in house; host or cells: Escherichia coli Rosetta 2(DE3)
T4 sequence (P37231 195-477 isoform P37231-2 R280C): T1 sequence (P37231 195-477 isoform P37231-2 F287Y) with R86C, Y93F
The test can be described thus: ITC binding of endogenous ligands to PPARγ LBD R280C. Particulars: PBS pH 7.2, 25 °C, ligand 0.9 mM. How it is done:
as §1, §2

The target of test [5] is T5, PPARγ LBD Q286P (Homo sapiens, UniProt P37231, Q314P).
T5 construct: PPARγ LBD (residues 195–477 in PPARγ1 numbering) was cloned into the expression vector pET-28b(+); made in house; host or cells: Escherichia coli Rosetta 2(DE3)
T5 sequence (P37231 195-477 isoform P37231-2 Q286P): T1 sequence (P37231 195-477 isoform P37231-2 F287Y) with Q92P, Y93F
The test can be described thus: ITC binding of endogenous ligands to PPARγ LBD Q286P. Particulars: PBS pH 7.2, 25 °C, ligand 0.9 mM. The method, then:
as §1, §2

Test [6] addresses T6, PPARγ LBD R288H (Homo sapiens, UniProt P37231, R316H).
T6 construct: PPARγ LBD (residues 195–477 in PPARγ1 numbering) was cloned into the expression vector pET-28b(+); made in house; host or cells: Escherichia coli Rosetta 2(DE3)
T6 sequence (P37231 195-477 isoform P37231-2 R288H): T1 sequence (P37231 195-477 isoform P37231-2 F287Y) with Y93F, R94H
The test can be described thus: ITC binding of endogenous ligands to PPARγ LBD R288H. Particulars: PBS pH 7.2, 25 °C, ligand 0.9 mM. How it is done: as §1, §2

Test [7] concerns the target T7, PPARγ LBD WT (Homo sapiens, UniProt P37231).
T7 construct: PPARγ LBD (residues 195–477 in PPARγ1 numbering) was cloned into the expression vector pET-28b(+); made in house; host or cells: Escherichia coli Rosetta 2(DE3)
T7 sequence (P37231 195-477 isoform P37231-2): T1 sequence (P37231 195-477 isoform P37231-2 F287Y) with Y93F
The test is described as follows: ITC binding of endogenous ligands to PPARγ LBD WT. Particulars: PBS pH 7.2, 25 °C, ligand 0.9 mM. How it is done: as §1, §2

The subject of test [8] is MED1 peptide. The test can be described thus: SPR binding of PPARγ LBD proteins to immobilized MED1 co-activator peptide. The method, then:
Next, we evaluated the interaction between PPARγ LBD and MED1 co-activator peptides containing the LXXLL motif, where X represents any amino acid residue, by SPR (Figure 3D–F and Figure S8).
(§3) The binding affinities of PPARγ LBD with lobeglitazone, RXRα and MED1 were investigated by SPR kinetics experiments. All SPR experiments were conducted at 25 °C in a Biacore T200 system (GE Healthcare). For immobilization, an amine coupling kit containing 0.1 M N-hydroxysuccinimide and 0.4 M 1-ethyl-3-(3-dimethylaminopropyl) carbodiimide hydrochloride on a CM5 sensor chip with HBS-EP (HEPES-buffered saline with EDTA and surfactant P20) buffer (10 mM HEPES pH 7.5, 150 mM NaCl, 3 mM EDTA, 0.005% tween 20) was used according to the manufacturer’s protocol (GE Healthcare). […] The remaining activated carboxyl groups on the CM5 sensor chip surface were deactivated with 1 M ethanolamine at pH 8.5 for 400 s. The control experiment was treated identically with reference flow cell 1 or 3 without proteins and the response by the control was subtracted from each sample dataset. […] The sensor chip surface was regenerated for 5 s with 5 mM NaOH between cycles. […] The SPR response data were fit to the simple bimolecular 1:1 Langmuir isotherm binding model to determine the equilibrium dissociation constant (KD) using Biacore T200 evaluation software 3.0 (GE Healthcare).

Test [9] has as its system RXRα LBD. The test can be described thus: SPR heterodimerization of PPARγ LBD proteins with immobilized RXRα LBD. It is filed as binding. The method, then:
The transcriptional activity of PPARγ is regulated by heterodimer formation with RXRα and the recruitment of co-regulators.
as §3

The target in test [10] is MED1 co-activator peptide containing the LXXLL motif. The test can be described thus: SPR; MED1 peptide amine-coupled to a CM5 chip (about 60 RU); PPARγ LBD WT or mutant injected at 78 nM to 10 μM, 30 μL/min, 120 s, dissociation 400 s; Biacore T200, 25 °C; 50 mM Tris-HCl pH 7.5, 150 mM NaCl, 1 mM TCEP, 0.005% tween 20; 1:1 Langmuir model. A general note: SPR reads the build-up and loss of mass on a sensor chip optically.

Test [11] concerns the target T8, PPARγ LBD R288C (Homo sapiens, UniProt P37231, R316C).
T8 construct: PPARγ LBD (residues 195–477 in PPARγ1 numbering) was cloned into the expression vector pET-28b(+); made in house; host or cells: Escherichia coli Rosetta 2(DE3)
T8 sequence (P37231 195-477 isoform P37231-2 R288C): T1 sequence (P37231 195-477 isoform P37231-2 F287Y) with Y93F, R94C
The test is described as follows: ITC binding of endogenous ligands to PPARγ LBD R288C. Particulars: PBS pH 7.2, 25 °C, ligand 0.9 mM. How it is done:
as §1, §2

The target of test [12] is T9, PPARγ LBD Q286E (Homo sapiens, UniProt P37231, Q314E).
T9 construct: PPARγ LBD (residues 195–477 in PPARγ1 numbering) was cloned into the expression vector pET-28b(+); made in house; host or cells: Escherichia coli Rosetta 2(DE3)
T9 sequence (P37231 195-477 isoform P37231-2 Q286E): T1 sequence (P37231 195-477 isoform P37231-2 F287Y) with Q92E, Y93F
The test is described as follows: ITC binding of endogenous ligands to PPARγ LBD Q286E. Particulars: PBS pH 7.2, 25 °C, ligand 0.9 mM. How it is done: as §1, §2

Test [13] concerns the target T10, PPARγ LBD WT (peroxisome proliferator-activated receptor gamma ligand-binding domain, wild-type) (human, UniProt P37231-2 195-477).
T10 construct: numbers count on: the PPARγ1 isoform; pET-28b(+) between Nde1 and Xho1; also called PPARγ WT; source: E. coli Rosetta 2(DE3), purified (Ni2+ HiTrap chelating, thrombin cleavage, Superdex200 gel filtration); not shown: His6, N-terminal, cleaved
T10 sequence (looked up): T1 sequence (P37231 195-477 isoform P37231-2 F287Y) with Y93F
The test can be described thus: SPR; RXRα LBD amine-coupled to a CM5 chip (about 600 RU); PPARγ LBD WT or mutant injected, 30 μL/min, 120 s, dissociation 500 s; Biacore T200, 25 °C; 50 mM Tris-HCl pH 7.5, 150 mM NaCl, 1 mM TCEP, 0.005% tween 20; 1:1 Langmuir model. To be noted: both partners purified.

Changes are numbered by the printed parent chain.

On to `CCCCCC=CC=C1C(=O)C=C[C@@H]1CC=CCCCC(=O)O` [15d-PGJ2, 15-deoxy-∆^12,14-prostaglandin J2], for which the Kd (commonly the free concentration of one partner at which half of the binding sites on the other are occupied at equilibrium, for simple one-to-one binding) was 65.3 µM in test [1]; 162 µM in [2]; 42.9 µM in test [3]; greater than 201 µM in [4]; 201 µM in test [5]; greater than 201 µM in test [6]. In test [7], this molecule showed a dissociation constant Kd of 51 µM.

Turning to “PPARγ LBD WT: recombinant human PPARγ ligand-binding domain (residues 195–477), wild-type”, in test [8], the “ka for MED1 peptide” value is 146000 M⁻¹ s⁻¹ and the “kd for MED1 peptide” value stood at 1.24 s⁻¹. Besides, in [8] (25 °C, MED1 peptide immobilized), the affinity, expressed as Kd, was 8.45 µM. In test [9], the “ka for RXRα LBD” value came out at 396000 M⁻¹ s⁻¹ and the “kd for RXRα LBD” value was 0.0223 s⁻¹. In test [9] (25 °C, RXRα LBD immobilized), this molecule showed a Kd of 57.9 nM.

On to “PPARγ LBD Q286E (from UniProt P37231-2 195-477) (domain or fragment)”, for which the Kd in test [10] was found to be 5.61 µM.

For `CCCCC[C@H](O)/C=C/C=C\CCCCCCCC(=O)O` [13S-HODE, 13S-hydroxy-9Z,11E-octadecadienoic acid], the dissociation constant Kd in [11] is greater than 201 µM; in test [1] it was 27.7 µM; in test [2] it was 42.7 µM; in [3], greater than 201 µM; in test [4], greater than 201 µM; in test [5], greater than 201 µM. Besides, the values for the dissociation constant (Kd) in test [6], in test [7] and in [12] were 67.1 µM, 14.6 µM and 45.9 µM, respectively.

Regarding “PPARγ LBD WT (peroxisome proliferator-activated receptor gamma ligand-binding domain, wild-type) (from UniProt P37231-2 195-477) (domain or fragment)”, in test [10], the equilibrium dissociation constant (Kd) was determined as 8.45 µM.

B1: RXRα LBD (retinoid X receptor α ligand-binding domain) (domain or fragment, UniProt P19793 223-462, looked up)
chain: TSSANEDMPVERILEAELAVEPKTETYVEANMGLNPSSPNDPVTNICQAADKQLFTLVEWAKRIPHFSELPLDDQVILLRAGWNELLIASFSHRSIAVKDGILLATGLHVHRNSAHSAGVGAIFDRVLTELVSKMRDMQMDKTELGCLRAIVLFNPDSKGLSNPAEVEALREKVYASLEAYCKHKYPEQPGRFAKLLLRLPALRSIGLKCLEHLFFFKLIGDTPIDTFLMEMLEAPHQMT
In the case of B1, binding in [13] was characterised by a dissociation constant (Kd) of 57.9 nM.
